In assay [1] the test system is serum triglyceride. As to the kind of experiment: Serum triglyceride in normal CF1 mice (Example 10). Particulars: Mus musculus, 384 h, 20 mg/kg/day ip, Day 16, ± standard deviation, read-out: Serum Triglyceride, Day 16 (percent control). In kind it is in vivo, CF1 male mice. The protocol:
(§1) The ten compounds listed in Table II below were tested for their hypolipidemic activity in CF1 mice.
(§2) Compounds A-J as defined above, were suspended in an aqueous 1percent carboxymethylcellulose (CMC) solution and homogenized. Each of the so prepared compounds were administered to a group of six CF1 male mice, each weighing approximately 25 grams, intraperitioneally for 16 days. Each of these compounds were provided in a dosage of 20 mg/kg/day ip. On Days 9 and 16 blood was obtained by tail vein bleeding. The blood serum so obtained was separated by centrifugation for three minutes. Serum cholesterol levels were determined by a modification of the Liebermann-Burchard reaction (Ness, Clin. Chim. Acta., Vol. 10, 229[1964]). Serum triglyceride levels were determined on Day 16 by use of the Fisher, Hycel Triglyceride Test Kit.
(§3) In addition to the above-described treated mice, an untreated control group of six mice were similarly tested on Days 9 and 16 to determine their serum cholesterol and trigylceride blood levels. Based on the results obtained for the untreated control group, the percent control, based on serum cholesterol and serum triglyceride levels of the treated mice compared to the untreated mice, was obtained. Table III reports this percent control, including standard deviation, indicating the level of confidence of these numbers.

The test system of assay [2] is serum cholesterol. Briefly: Serum cholesterol in normal CF1 mice (Example 10). Conditions: Mus musculus, 20 mg/kg/day ip. In kind it is in vivo, CF1 male mice. The protocol: as §1, §2, §3
Assay [3] relates to serum triglyceride. As to the kind of experiment: Serum triglyceride in normal rats (Example 12). Conditions: 20 mg/kg/day orally. In kind it is in vivo, Sprague-Dawley male rats. The protocol: (§4) A solution of Compound D, 2-(3,4,5-trimethoxybenzoyl)-4,4-diethylisoxazolidine-3,5-dione, was suspended in an aqueous solution of 1% CMC, homogenized and administered orally to six Sprague-Dawley male rats, which each weighed approximately 350 grams. Similarly, six Sprague-Dawley male rats of approximately the same weight were administered similar volumes of the same aqueous 1% CMC solution without the active agent, Compound D, also orally. In each case, administration was by intubation needle at 20 mg/kg/day for 14 days. In addition, as a control, a similar group of six male Sprague-Dawley rats were untreated.
(§5) On Days 7 and 14, blood was obtained from each of the rats of the three groups by tail vein bleeding. The blood obtained was separated by centrifugation for three minutes. Serum cholesterol and triglyceride levels were determined in accordance with the procedure of Example 10.

In assay [4] the test system is serum cholesterol. Briefly: Serum cholesterol in hyperlipidemic mice on atherogenic diet (Example 11). Conditions: hyperlipidemic CF1 mice, 20 mg/kg/day ip, Day 14, from 375 mg %. In kind it is in vivo, CF1 male mice. The method, then:
(§6) A group of six CF^1 male mice (about 25 g) was placed on a commercial diet (U.S. Biochemical Corporation BAsal Atherogenic Test Diet) which produced a "hyperlipidemic" state. That is, the average serum cholesterol level in the group of treated mice was raised from 122 to 375 mg % and triglyceride levels were raised from 137 to 367 mg/dl.
(§7) Upon reaching these hyperlipidemic levels, the mice were administered Compound D in a concentration of 20 mg/kg/day intraperitoneally for 14 days while continuing the diet. On Day 14, serum cholesterol and serum triglyceride levels were measured in accordance with the procedure of Example 10.

Assay [5] deals with serum triglyceride. Briefly: Serum triglyceride in hyperlipidemic mice on atherogenic diet (Example 11). In kind it is in vivo, CF1 male mice. Conditions: hyperlipidemic CF1 mice, 20 mg/kg/day ip, Day 14, from 367 mg/dl. The method, then: as §6, §7
In assay [6] the test system is serum cholesterol. As to the kind of experiment: Serum cholesterol in normal rats (Example 12). Particulars: 20 mg/kg/day orally. In kind it is in vivo, Sprague-Dawley male rats. The protocol: as §4, §5
The test system of another assay is plasma lipid level. Particulars: rats; cited from earlier work.
The mark [7] stands for this setting: 216 h, Day 9, ± standard deviation, read-out: Serum Cholesterol, Day 9 (percent control).
[8] abbreviates: 384 h, Day 16, ± standard deviation, read-out: Serum Cholesterol, Day 16 (percent control).

Like-named read-outs stand apart in the source and are kept apart here.

Turning to `C=C(C)N1OC(=O)C(CC)(CC)C1=O` [A], the response vs control in vivo at 20 mg/kg/day in the assay with serum triglyceride [1] is 71 ± 6%; in the assay with serum cholesterol [2] (setting [7]), 70 ± 7%; in the assay with serum cholesterol [2] (setting [8]) it was 75 ± 4%.
Regarding `C=C(c1ccccc1)N1OC(=O)C(CC)(CC)C1=O` [B, 2-(1-phenylethenyl)-4,4-diethylisoxazolidine-3,5-dione], the response vs control in vivo at 20 mg/kg/day in the assay on serum triglyceride [1] is 71 ± 4%; in the assay on serum cholesterol [2] (setting [7]), 71 ± 5%; with serum cholesterol [2] (setting [8]) it was 63 ± 6%.
On the same counts, the results for `CCC1(CC)C(=O)ON(C2(N3OC(=O)C(CC)(CC)C3=O)CCCCC2)C1=O` [C, 1,1-bis-[2-(4,4-diethylisoxazolidine-3,5-dione)]cyclohexane] are 77 ± 9%, 86 ± 7% and 73 ± 7%.
Consider `CCC1(CC)C(=O)ON(C(=O)c2cc(OC)c(OC)c(OC)c2)C1=O` [Compound D, 2-(3,4,5-trimethoxybenzoyl)-4,4-diethylisoxazolidine-3,5-dione], for which, in the assay with serum triglyceride [3] (Day 7), the “average serum triglyceride level compared to control, Day 7” value was 64%. Also, the “serum triglyceride level compared to control, Day 14” value in the assay on serum triglyceride [3] (Day 14) is on record as 43%. Moreover, in the assay with serum cholesterol [4], the “serum cholesterol level after treatment” value stood at 150 mg % and the “serum cholesterol remaining, percent of pre-treatment level” value worked out at 40%. Also, the response vs control in vivo at 20 mg/kg/day with serum triglyceride [1] was 66 ± 6%. In the assay with serum triglyceride [5], the “serum triglyceride level after treatment” value worked out at 187 mg/dL and the “serum triglyceride level remaining, percent of pre-treatment level” value is 51%. In addition, in the assay on serum cholesterol [2] (setting [7]), the response vs control in vivo at 20 mg/kg/day was 82 ± 6%. In addition, the response vs control in vivo at 20 mg/kg/day in the assay with serum cholesterol [2] (setting [8]) was found to be 51 ± 5%. Besides, in the assay with serum cholesterol [6] (Day 7), the “serum cholesterol level compared to control rats, Day 7” value stood at 77%. The “serum cholesterol level compared to control rats, Day 14” value in the assay on serum cholesterol [6] (Day 14) amounted to 61%.
On to `CCC1(CC)C(=O)ON(C(=O)c2ccccc2)C1=O` [E, 2-benzoyl-4,4-diethylisoxazolidine-3,5-dione], for which the response vs control in vivo at 20 mg/kg/day with serum triglyceride [1] was 63 ± 7%; with serum cholesterol [2] (setting [7]) it was 77 ± 5%; with serum cholesterol [2] (setting [8]) it was 53 ± 6%.
Take `CCC1(CC)C(=O)ON(C(C)(C)N2OC(=O)C(CC)(CC)C2=O)C1=O` [F, 2,2-bis-[2-(4,4-diethylisoxazolidine-3,5-dione)]propane]: the values for the response vs control in vivo at 20 mg/kg/day in the assay on serum triglyceride [1], with serum cholesterol [2] (setting [7]) and with serum cholesterol [2] (setting [8]) were 68 ± 8%, 95 ± 4% and 57 ± 6%, respectively.
With `CCC1(CC)C(=O)ON(C(=O)c2ccc(OC)c(OC)c2)C1=O` [G, 2-(3,4-dimethoxybenzoyl)-4,4-diethylisoxazolidine-3,5-dione], the response vs control in vivo at 20 mg/kg/day in the assay with serum triglyceride [1] came out at 84%; in the assay on serum cholesterol [2] (setting [7]) it was 81%; with serum cholesterol [2] (setting [8]), 77%.
The like results for `CCC1(CC)C(=O)ON(C(=O)c2ccc(OC)cc2)C1=O` [H, 2-(4-methoxybenzoyl)-4,4-diethylisoxazolidine-3,5-dione] were, in that order, 63%, 89% and 62%.
On the same counts, the results for `CCC1(CC)C(=O)ON(C(=O)c2ccc(C)cc2)C1=O` [I, 2-(4-methylbenzoyl)-4,4-diethylisoxazolidine-3,5-dione] are 86%, 73% and 46%.
As for `CCC1(CC)C(=O)ON(C(=O)c2ccc(Cl)cc2)C1=O` [J, 2-(4-chlorobenzoyl)-4,4-diethylisoxazolidine-3,5-dione], the response vs control in vivo at 20 mg/kg/day was determined as 76% with serum triglyceride [1], 64% in the assay with serum cholesterol [2] (setting [7]) and 45% with serum cholesterol [2] (setting [8]).
For `O=C(O)c1cc(=O)[nH]c(=O)[nH]1` [orotic acid], the plasma lipid level entry in the assay with plasma lipid level is “decrease the plasma lipid level in rats”.

The values are drawn from US4999366A, “Isoxazolidine-3,5-diones, pharmaceutical compositions and method of treatment” (The North Carolina Central Univ., priority 1990, dated 1991).
